The values below come from patent publication US9982231B2, “Methods for reprogramming differentiated non-cardiac cells into cardiomyocytes” (The J. David Gladstone Institutes, a testamentary trust …, priority 2013, dated 2018).

Test [1] addresses PDGF receptor tyrosine kinase. As to conditions: PDGFR kinase / PDGF receptor tyrosine kinase; cited from earlier work.
Test [2] concerns human adult dermal fibroblasts (HADFs). Description: Conversion of human adult dermal fibroblasts into chemically induced cardiomyocytes. Format: cell-based. An excerpt: 9C is the reprogramming conditions; CCM. CM-conditioned medium; D, day. […] FIG. 9C graphically illustrates test protocols for ascertaining optimal treatment durations for a combination of sodium butyrate and SMER28 (NS) (n=3). The duration shown on the x-axis of the left graph is days (e.g., D0=day zero; D-14=day 14 of treatment). […] Scale bars, 100 μm.

The target of test [3] is platelet-derived growth factor receptor β (PDGFRβ) (Homo sapiens, UniProt P09619). Conditions: cited from earlier work.
platelet-derived growth factor receptor β (PDGFRβ), sequence (P09619 33-1106): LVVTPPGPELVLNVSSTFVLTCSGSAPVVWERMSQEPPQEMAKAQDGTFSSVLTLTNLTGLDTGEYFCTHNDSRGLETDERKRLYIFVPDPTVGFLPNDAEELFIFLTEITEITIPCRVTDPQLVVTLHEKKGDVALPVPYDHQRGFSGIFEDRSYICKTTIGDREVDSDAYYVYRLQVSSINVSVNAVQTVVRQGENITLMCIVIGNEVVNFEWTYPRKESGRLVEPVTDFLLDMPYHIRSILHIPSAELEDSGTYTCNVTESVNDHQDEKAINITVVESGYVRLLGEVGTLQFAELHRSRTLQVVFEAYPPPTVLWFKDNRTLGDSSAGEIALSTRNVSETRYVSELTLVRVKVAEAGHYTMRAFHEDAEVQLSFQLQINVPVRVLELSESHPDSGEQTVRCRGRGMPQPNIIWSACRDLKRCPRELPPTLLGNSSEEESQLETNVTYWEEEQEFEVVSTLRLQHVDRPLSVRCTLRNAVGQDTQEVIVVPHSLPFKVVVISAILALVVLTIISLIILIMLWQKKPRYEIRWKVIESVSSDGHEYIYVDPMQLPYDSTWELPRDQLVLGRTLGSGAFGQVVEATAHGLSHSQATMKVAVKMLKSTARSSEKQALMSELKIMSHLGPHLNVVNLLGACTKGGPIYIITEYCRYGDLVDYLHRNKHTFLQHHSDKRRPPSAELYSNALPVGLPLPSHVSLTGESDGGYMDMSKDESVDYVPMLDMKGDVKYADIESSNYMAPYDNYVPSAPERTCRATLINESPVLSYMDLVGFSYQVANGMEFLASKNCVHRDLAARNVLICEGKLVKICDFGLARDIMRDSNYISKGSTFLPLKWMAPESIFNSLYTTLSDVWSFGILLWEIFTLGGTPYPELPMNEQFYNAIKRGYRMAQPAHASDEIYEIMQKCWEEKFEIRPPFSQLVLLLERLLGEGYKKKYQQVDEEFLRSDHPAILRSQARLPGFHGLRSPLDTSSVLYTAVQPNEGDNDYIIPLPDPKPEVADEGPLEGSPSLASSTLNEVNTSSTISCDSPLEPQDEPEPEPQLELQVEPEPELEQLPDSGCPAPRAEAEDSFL
The target of test [4] is T1, RasGAP (Homo sapiens, UniProt P20936).
T1 sequence (P20936 1-1047): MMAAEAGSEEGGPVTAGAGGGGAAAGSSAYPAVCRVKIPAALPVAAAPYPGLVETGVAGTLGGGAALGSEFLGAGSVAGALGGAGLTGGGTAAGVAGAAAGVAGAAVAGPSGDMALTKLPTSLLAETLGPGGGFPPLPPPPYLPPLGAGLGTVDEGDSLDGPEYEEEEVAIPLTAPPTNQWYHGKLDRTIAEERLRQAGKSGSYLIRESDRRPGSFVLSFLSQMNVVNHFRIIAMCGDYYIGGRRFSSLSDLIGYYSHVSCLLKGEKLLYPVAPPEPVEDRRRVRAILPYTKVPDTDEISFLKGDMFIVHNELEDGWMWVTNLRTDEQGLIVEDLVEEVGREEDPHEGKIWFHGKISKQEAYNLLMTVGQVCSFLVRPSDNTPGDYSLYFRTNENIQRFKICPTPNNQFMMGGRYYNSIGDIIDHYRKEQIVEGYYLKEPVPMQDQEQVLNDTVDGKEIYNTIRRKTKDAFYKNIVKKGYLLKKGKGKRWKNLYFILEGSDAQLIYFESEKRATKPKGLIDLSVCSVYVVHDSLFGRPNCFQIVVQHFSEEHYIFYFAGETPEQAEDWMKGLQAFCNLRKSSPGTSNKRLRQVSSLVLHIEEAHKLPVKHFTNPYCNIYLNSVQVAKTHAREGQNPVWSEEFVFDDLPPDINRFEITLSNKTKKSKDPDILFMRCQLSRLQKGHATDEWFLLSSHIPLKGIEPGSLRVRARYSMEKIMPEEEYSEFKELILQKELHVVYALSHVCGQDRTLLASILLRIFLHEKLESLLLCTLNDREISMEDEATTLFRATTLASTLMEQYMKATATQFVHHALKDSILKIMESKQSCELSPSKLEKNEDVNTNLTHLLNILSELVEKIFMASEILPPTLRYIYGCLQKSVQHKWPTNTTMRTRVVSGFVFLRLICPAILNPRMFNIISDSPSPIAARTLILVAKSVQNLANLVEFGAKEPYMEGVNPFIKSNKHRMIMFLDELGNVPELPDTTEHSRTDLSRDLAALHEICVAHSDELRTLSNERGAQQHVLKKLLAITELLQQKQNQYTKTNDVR
As to conditions: cited from earlier work.

Test [5] has as its target ERK1 (Homo sapiens, UniProt P27361). Conditions: cited from earlier work.
In test [6] the target is SAPK2/p38 (Homo sapiens, UniProt Q16539). As to conditions: CK1 and ALK5 inhibitor vs SAPK2/p38; cited from earlier work.
SAPK2/p38, sequence (Q16539 whole entry): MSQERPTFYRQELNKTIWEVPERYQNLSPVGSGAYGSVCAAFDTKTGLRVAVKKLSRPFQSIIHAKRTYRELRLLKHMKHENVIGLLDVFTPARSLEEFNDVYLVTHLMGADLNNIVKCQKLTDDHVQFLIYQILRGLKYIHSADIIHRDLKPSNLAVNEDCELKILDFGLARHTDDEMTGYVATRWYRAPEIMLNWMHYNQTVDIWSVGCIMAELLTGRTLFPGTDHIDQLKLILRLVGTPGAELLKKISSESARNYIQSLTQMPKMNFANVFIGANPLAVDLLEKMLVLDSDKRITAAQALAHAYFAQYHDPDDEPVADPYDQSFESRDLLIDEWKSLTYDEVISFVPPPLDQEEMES
Test [7] has as its target epidermal growth factor receptor (EGFR) (Homo sapiens, UniProt P00533). Conditions: EGFR / EGF receptor kinase; cited from earlier work.
The subject of test [8] is human foreskin fibroblast cells. Briefly: Reprogramming with PBIT as a substitute for AS8351. It counts as cell-based. Here is the method:
FIG. 8A graphically illustrates the knockdown efficiency of the indicated shRNAs in human foreskin fibroblast cells detected by qPCR (n=2). Expression values for each gene were normalized to those measured in control shRNA group. […] Data were collected on day 30. […] Data were collected on day 30. […] FIG. 8E illustrates immunofluorescence staining of cardiomyocyte markers on contracting clusters at day 30 after inducing reprogramming where AS8351 was replaced with 10 μM PBIT. Scale bars, 100 μm. […] Em, membrane potential. Dotted lines indicate 0 mV. F/F0, fluorescence relative to the baseline.
This conclusion was further confirmed by using a KDM5B inhibitor, PBIT (Sayegh et al., 2013) (FIGS. 8C and 8D).
KDM5B catalyzes the demethylation of tri-, di-, and mono-methylation states of H3K4 and facilitates heterochromatin formation (Mosammaparast and Shi, 2010). The inventors have observed that one effect of the reprogramming compositions described herein is on re-opening closed chromatin structures.

For test [9], the system named is contracting cardiomyocytes derived from human fibroblast cells. Description: Responses of reprogrammed cardiomyocytes to β-adrenergic and muscarinic stimulation. Format: cell-based. As to conditions: cardiomyocytes reprogrammed from CRL-2097. As to the method: Naïve human fibroblast CRL-2097 cells were treated with cardiac reprogramming medium for 6 days followed by treatment with cardiac induction medium 1 for 5 days and then cardiac induction medium 2 for 21-26 days.
Representative beating frequencies of the reprogrammed cells are shown in FIG. 7A before (i) or after β-adrenergic stimulation by its agonist (ii, isoproterenol), or a muscarinic agonist (iii. Carbachol; CCh).

Where [10] appears, read: 7-day pretreatment before reprogramming.

Each structure is given as a SMILES string.

epidermal growth factor receptor (EGFR), sequence (P00533 25-1210, species assumed): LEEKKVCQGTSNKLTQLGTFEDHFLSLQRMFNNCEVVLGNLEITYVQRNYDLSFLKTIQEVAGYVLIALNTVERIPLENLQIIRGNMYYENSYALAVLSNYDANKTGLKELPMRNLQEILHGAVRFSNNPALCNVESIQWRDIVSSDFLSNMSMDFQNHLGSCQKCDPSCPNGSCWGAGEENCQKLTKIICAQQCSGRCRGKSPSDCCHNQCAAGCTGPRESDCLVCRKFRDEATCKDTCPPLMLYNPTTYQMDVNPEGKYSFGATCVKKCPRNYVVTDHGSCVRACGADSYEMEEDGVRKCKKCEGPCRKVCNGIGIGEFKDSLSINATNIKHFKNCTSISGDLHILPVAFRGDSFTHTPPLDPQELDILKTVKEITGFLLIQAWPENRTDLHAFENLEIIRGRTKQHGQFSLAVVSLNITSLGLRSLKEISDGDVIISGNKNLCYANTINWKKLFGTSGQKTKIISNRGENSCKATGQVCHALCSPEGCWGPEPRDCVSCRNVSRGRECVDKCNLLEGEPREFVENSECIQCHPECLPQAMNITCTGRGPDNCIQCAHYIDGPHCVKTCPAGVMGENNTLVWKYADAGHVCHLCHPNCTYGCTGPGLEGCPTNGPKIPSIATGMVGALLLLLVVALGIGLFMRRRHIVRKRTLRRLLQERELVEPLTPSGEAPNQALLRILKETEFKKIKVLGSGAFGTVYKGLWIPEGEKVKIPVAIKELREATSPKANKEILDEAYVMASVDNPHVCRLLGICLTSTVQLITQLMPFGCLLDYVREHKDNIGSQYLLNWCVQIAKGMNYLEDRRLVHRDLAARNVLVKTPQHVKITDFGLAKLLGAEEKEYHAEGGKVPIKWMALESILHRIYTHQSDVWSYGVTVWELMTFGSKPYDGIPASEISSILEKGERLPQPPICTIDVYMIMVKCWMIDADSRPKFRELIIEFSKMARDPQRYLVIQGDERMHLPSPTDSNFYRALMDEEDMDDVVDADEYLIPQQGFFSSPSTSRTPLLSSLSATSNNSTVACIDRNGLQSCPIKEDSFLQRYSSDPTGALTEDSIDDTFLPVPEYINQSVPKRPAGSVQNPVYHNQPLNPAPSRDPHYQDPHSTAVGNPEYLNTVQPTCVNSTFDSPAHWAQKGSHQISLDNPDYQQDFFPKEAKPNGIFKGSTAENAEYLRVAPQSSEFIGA
ERK1, sequence (P27361 whole entry, species assumed): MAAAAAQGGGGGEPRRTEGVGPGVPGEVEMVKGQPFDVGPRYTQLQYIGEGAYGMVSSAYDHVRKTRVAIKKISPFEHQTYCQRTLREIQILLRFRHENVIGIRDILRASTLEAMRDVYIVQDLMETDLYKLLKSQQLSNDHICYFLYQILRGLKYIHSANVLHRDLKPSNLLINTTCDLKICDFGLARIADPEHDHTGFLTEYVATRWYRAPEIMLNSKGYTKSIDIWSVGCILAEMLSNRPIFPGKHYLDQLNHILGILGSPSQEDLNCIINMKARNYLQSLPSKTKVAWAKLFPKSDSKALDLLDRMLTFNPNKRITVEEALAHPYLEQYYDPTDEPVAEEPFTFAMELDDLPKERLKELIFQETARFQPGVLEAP

One may read the IC50 as the concentration needed to halve the response being measured. In the case of `COc1cc2ncc(-c3ccccc3)nc2cc1OC` [AG-1296, 6,7-Dimethoxy-3-phenylquinoxaline], the IC50 in test [1] was 1000 nM.

As for `C=CCNc1ncnc2ccc(Br)cc12` [SMER28], in [2] (setting [10]), the “generation of beating cardiac clusters from HADFs” value was “enabled the generation of beating cardiac clusters” and the “proliferation of HADFs” value is “increased the proliferation of HADFs”.

As to `N#C/C(=C\c1ccc(O)c(O)c1)C(N)=O` [Tyrphostin 46], in [1], the IC50 was 50000 nM.

For the compound `Cc1[nH]c(C=C2C(=O)Nc3ccccc32)c(C)c1CCC(=O)O` [SU 6668], the half-inhibitory concentration (IC50) in [3] is 60 nM.

The Kd is the constant that tells how readily two partners part at equilibrium. Take `Cc1cc(Nc2ncc3c(n2)N(C)C(=O)N(c2cc(NC(=O)c4cccc(C(F)(F)F)c4)ccc2C)C3)n(C)n1` [SC1, N-(3-(7-(1,3-dimethyl-1H-pyrazol-5-ylamino)-1-methyl-2-oxo-1,2-dihydropyrimido[4,5-d]pyrimidin-3(4H)-yl)-4-methylphenyl)-3-(trifluoromethyl)benzamide]: the values for the equilibrium dissociation constant (Kd) in test [4] and in test [5] were 98 nM and 212 nM, respectively.

For `N#CC(C#N)=Cc1ccc(O)c(O)c1` [AG18, [(3,4-Dihydroxyphenyl)methylene]-propenedinitrile], the IC50 in test [1] is 25000 nM.

As to `CC(C)(C)c1cc(C=C(C#N)C#N)cc(C(C)(C)C)c1O` [Tyrphostin 9], in test [1], the IC50 is 1200 nM.

With `NC(=O)c1ccc(-c2nc(-c3ccc4c(c3)OCCO4)c(-c3ccccn3)[nH]2)cc1` [D 4476, 4-[4-(2,3-Dihydro-1,4-benzodioxin-6-yl)-5-(2-pyridinyl)-1H-imidazol-2-yl]benzamide], the “selectivity over SAPK2/p38” value in test [6] is “greater than 20 fold”.

As to `N#CC(=Cc1ccc2[nH]ccc2c1)C(N)=C(C#N)C#N` [AG-370, 2-Amino-4-(1H-indol-5-yl)-1,1,3-tricyanobuta-1,3-diene], the IC50 in test [7] is 820000 nM; in test [1] it was 20000 nM.

As for `Cc1ccc(-n2sc3ccccc3c2=O)cc1` [PBIT, 2-(4-methylphenyl)-1,2-benzisothiazol-3(2H)-one], the electrophysiological features result in [8] (10 μM PBIT as a substitute for AS8351) is reported as “exhibited CM-like electrophysiological features”. For the same compound, in [8] (10 μM PBIT as a substitute for AS8351, day 30), the “expression of cardiac proteins” value is “expressed a broad panel of cardiac proteins”.

As to `CC(C)NCC(O)c1ccc(O)c(O)c1` (centres unmarked) [isoproterenol], in test [9], the “effect on beating frequency” value is reported as “significantly increased”.

Consider `CCCC(=O)[O-].[Na+]` [sodium butyrate (NaB), sodium butyrate], for which, in test [2] (pretreatment in combination with SMER28), the “induction efficiency of HADFs” value is on record as “further increased the induction efficiency of HADFs”.

With `C[N+](C)(C)CCOC(N)=O` [Cch, carbachol], the “effect on beating frequency” value in [9] is listed as “opposite, negative effect”.
